This assay addresses human dUTPase (Homo sapiens (Human), UniProt P33316). Description: Human dUTPase inhibitory effect: production of [5-3H]dUMP from [5-3H]dUTP, measured by HPLC with flow scintillation. The format is biochemical. The note with it: [5-3H]dUMP production from [5-3H]dUTP, 37° C., 15 minutes. How it is done: The inhibitory activity of the compound of the present invention against human dUTPase was determined by measuring the production of [5-^3H]deoxyuridine monophosphate (hereinafter, referred to as [5-^3H]dUMP) from [5-^3H]deoxyuridine triphosphate (hereinafter, referred to as [5-^3H]dUTP) according to a method shown below.
Specifically, 0.2 mL in total of a solution containing 0.02 mL of 1 μM dUTP (including 588 Bq/mL [5-3H]dUTP), 0.05 mL of a 0.2 M Tris buffer solution (pH 7.4), 0.05 mL of 16 mM magnesium chloride, 0.02 mL of 20 mM 2-mercaptoethanol, 0.02 mL of a 1% aqueous solution of fetal bovine serum-derived albumin, 0.02 mL of varying concentrations of test compound solutions or pure water as a control, and 0.02 mL of a solution of human dUTPase (expressed using E. coli and purified) was reacted at 37° C. for 15 minutes. Immediately after the reaction, the solution was heated at 100° C. for 1 minute to terminate the reaction, followed by centrifugation at 15000 rpm for 2 minutes. An aliquot (150 μL) of the supernatant thus obtained by centrifugation was analyzed using an Atlantis dC18 column (manufactured by Waters Corp., 4.6×250 mm) and a high-performance liquid chromatograph (manufactured by Shimadzu Corp., Prominence). Elution was performed at a flow rate of 0.8 mL/min for 30 minutes by a concentration gradient from a 4:6 mixed solution of a mobile phase A (10 mM potassium dihydrogen phosphate (pH 6.7), 10 mM tetrabutylammonium, and 0.25% methanol) and a mobile phase B (50 mM potassium dihydrogen phosphate (pH 6.7), 5.6 mM tetrabutylammonium, and 30% methanol) to the mobile phase B. The eluate was mixed with a scintillator (manufactured by PerkinElmer Co., Ltd., Ultima-Flo AP) at a 1:2 ratio, and the radioactivity of the produced [5-^3H]dUMP (RT 10.2 min) was measured using Radiomatic Flow Scintillation Analyzer (manufactured by PerkinElmer Co., Ltd., 525TR).
The inhibitory activity of the test compound was determined according to the formula shown below.

Chain of human dUTPase (P33316 94-252): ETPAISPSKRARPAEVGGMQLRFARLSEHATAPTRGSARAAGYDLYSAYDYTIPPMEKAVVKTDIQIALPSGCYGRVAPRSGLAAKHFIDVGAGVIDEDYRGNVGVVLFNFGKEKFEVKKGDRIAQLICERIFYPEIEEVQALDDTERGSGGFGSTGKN

Regarding `C[C@@H](NS(=O)(=O)CCCOCn1ccc(=O)[nH]c1=O)c1cccc(OC2CCOCC2)c1` [Example 47, (R)-3-((2,4-dioxo-3,4-dihydropyrimidin-1(2H)-yl)methoxy)-N-(1-(3-(tetrahydro-2H-pyran-4-yloxy)phenyl)ethyl)propane-1-sulfonamide], the IC50 (as a rule, the concentration that gives 50% inhibition) was 210 nM. As to `C[C@@H](NS(=O)(=O)CCCOCn1ccc(=O)[nH]c1=O)c1ccc(F)c(OC2CCOCC2)c1` [Example 48, (R)-3-((2,4-dioxo-3,4-dihydropyrimidin-1(2H)-yl)methoxy)-N-(1-(4-fluoro-3-(tetrahydro-2H-pyran-4-yloxy)phenyl)ethyl)propane-1-sulfonamide], the 50% inhibitory concentration (IC50) came to 140 nM.

In turn, `C[C@@H](NS(=O)(=O)CCCOCn1ccc(=O)[nH]c1=O)c1cccc(O[C@H]2CCOC2)c1` [Example 49, 3-((2,4-dioxo-3,4-dihydropyrimidin-1(2H)-yl)methoxy)-N—((R)-1-(3-((S)-tetrahydrofuran-3-yloxy)phenyl)ethyl)propane-1-sulfonamide] gave an IC50 of 940 nM.

The compound `C[C@@H](NS(=O)(=O)CCCOCn1ccc(=O)[nH]c1=O)c1cccc(OC(F)(F)C(F)F)c1` [Example 51, (R)-3-((2,4-dioxo-3,4-dihydropyrimidin-1(2H)-yl)methoxy)-N-(1-(3-(1,1,2,2-tetrafluoroethoxy)phenyl)ethyl)propane-1-sulfonamide] came in with an IC50 of 830 nM.

Take `C[C@@H](NS(=O)(=O)CCCOCn1ccc(=O)[nH]c1=O)c1cccc(OCC(C)(C)C)c1` [Example 52, (R)-3-((2,4-dioxo-3,4-dihydropyrimidin-1(2H)-yl)methoxy)-N-(1-(3-(neopentyloxy)phenyl)ethyl)propane-1-sulfonamide]: the IC50 turned out to be 510 nM. In turn, `C[C@@H](NS(=O)(=O)CCCOCn1ccc(=O)[nH]c1=O)c1cccc(OCC(F)(F)F)c1` [Example 53, (R)-3-((2,4-dioxo-3,4-dihydropyrimidin-1(2H)-yl)methoxy)-N-(1-(3-(2,2,2-trifluoroethoxy)phenyl)ethyl)propane-1-sulfonamide] came in with an IC50 of 230 nM. `C[C@@H](NS(=O)(=O)CCCOCn1ccc(=O)[nH]c1=O)c1ccc(F)c(OCC(F)(F)F)c1` [Example 54, (R)-3-((2,4-dioxo-3,4-dihydropyrimidin-1(2H)-yl)methoxy)-N-(1-(4-fluoro-3-(2,2,2-trifluoroethoxy)phenyl)ethyl)propane-1-sulfonamide]: the IC50 was determined as 230 nM. On to `C[C@@H](NS(=O)(=O)CCCOCn1ccc(=O)[nH]c1=O)c1cccc(OC(F)(F)C(F)(F)F)c1` [Example 55, (R)-3-((2,4-dioxo-3,4-dihydropyrimidin-1(2H)-yl)methoxy)-N-(1-(3-(perfluoroethoxy)phenyl)ethyl)propane-1-sulfonamide], for which it took 410 nM to reach half-maximal inhibition (IC50). Take `C[C@@H](NS(=O)(=O)CCCOCn1ccc(=O)[nH]c1=O)c1cccc(OC(CF)CF)c1` [Example 56, (R)—N-(1-(3-(1,3-difluoropropan-2-yloxy)phenyl)ethyl)-3-((2,4-dioxo-3,4-dihydropyrimidin-1(2H)-yl)methoxy)propane-1-sulfonamide]: the midpoint of inhibition, the IC50, lay at 850 nM.

`C#CCOc1cccc([C@@H](C)NS(=O)(=O)CCCOCn2ccc(=O)[nH]c2=O)c1` [Example 57, (R)-3-((2,4-dioxo-3,4-dihydropyrimidin-1(2H)-yl)methoxy)-N-(1-(3-(prop-2-ynyloxy)phenyl)ethyl)propane-1-sulfonamide] came in with a concentration for half-maximal inhibition (IC50) of 1180 nM. The same measure for `CC(C)COc1cccc([C@@H](C)NS(=O)(=O)CCCOCn2ccc(=O)[nH]c2=O)c1` [Example 58, (R)-3-((2,4-dioxo-3,4-dihydropyrimidin-1(2H)-yl)methoxy)-N-(1-(3-isobutoxyphenyl)ethyl)propane-1-sulfonamide]: 310 nM; for `CC[C@H](C)COc1cccc([C@@H](C)NS(=O)(=O)CCCOCn2ccc(=O)[nH]c2=O)c1` [Example 59, 3-((2,4-dioxo-3,4-dihydropyrimidin-1(2H)-yl)methoxy)-N—((R)-1-(3-((S)-2-methylbutoxy)phenyl)ethyl)propane-1-sulfonamide]: 720 nM; for `C[C@@H](NS(=O)(=O)CCCOCn1ccc(=O)[nH]c1=O)c1cccc(OCC2(C)CC2)c1` [Example 60, (R)-3-((2,4-dioxo-3,4-dihydropyrimidin-1(2H)-yl)methoxy)-N-(1-(3-((1-methylcyclopropyl)methoxy)phenyl)ethyl)propane-1-sulfonamide]: 490 nM.

On to `C[C@@H](NS(=O)(=O)CCCOCn1ccc(=O)[nH]c1=O)c1cccc(OCC(F)F)c1` [Example 61, (R)—N-(1-(3-(2,2-difluoroethoxy)phenyl)ethyl)-3-((2,4-dioxo-3,4-dihydropyrimidin-1(2H)-yl)methoxy)propane-1-sulfonamide], for which the midpoint of inhibition, the IC50, lay at 140 nM. `C#C[C@H](C)Oc1cccc([C@@H](C)NS(=O)(=O)CCCOCn2ccc(=O)[nH]c2=O)c1` [Example 62, N—((R)-1-(3-((S)-but-3-yn-2-yloxy)phenyl)ethyl)-3-((2,4-dioxo-3,4-dihydropyrimidin-1(2H)-yl)methoxy)propane-1-sulfonamide]: the IC50 came out at 370 nM. `C#C[C@@H](C)Oc1cccc([C@@H](C)NS(=O)(=O)CCCOCn2ccc(=O)[nH]c2=O)c1` [Example 63, N—((R)-1-(3-((R)-but-3-yn-2-yloxy)phenyl)ethyl)-3-((2,4-dioxo-3,4-dihydropyrimidin-1(2H)-yl)methoxy)propane-1-sulfonamide] returned an IC50 of 470 nM. Take `C[C@@H](NS(=O)(=O)CCCOCn1ccc(=O)[nH]c1=O)c1cccc(OCC2CCCC2)c1` [Example 65, (R)—N-(1-(3-(cyclopentylmethoxy)phenyl)ethyl)-3-((2,4-dioxo-3,4-dihydropyrimidin-1(2H)-yl)methoxy)propane-1-sulfonamide]: it took 1000 nM to reach half-maximal inhibition (IC50). The same measure for `CC[C@@H](C)Oc1cccc([C@@H](C)NS(=O)(=O)CCCOCn2ccc(=O)[nH]c2=O)c1` [Example 66, N—((R)-1-(3-((R)-1-methylpropoxy)phenyl)ethyl)-3-((2,4-dioxo-3,4-dihydropyrimidin-1(2H)-yl)methoxy)propane-1-sulfonamide]: 460 nM. The compound `CC[C@H](C)Oc1cccc([C@@H](C)NS(=O)(=O)CCCOCn2ccc(=O)[nH]c2=O)c1` [Example 67, N—((R)-1-(3-((s)-1-methylpropoxy)phenyl)ethyl)-3-((2,4-dioxo-3,4-dihydropyrimidin-1(2H)-yl)methoxy)propane-1-sulfonamide] yielded an IC50 of 430 nM.

The compound `C[C@@H](NS(=O)(=O)CCCOCn1ccc(=O)[nH]c1=O)c1ccc(F)c(OCC(F)F)c1` [Example 68, (R)—N-(1-(3-(2,2-difluoroethoxy)-4-fluorophenyl)ethyl)-3-((2,4-dioxo-3,4-dihydropyrimidin-1(2H)-yl)methoxy)propane-1-sulfonamide] displayed an IC50 of 110 nM. `C=CCOc1cccc([C@@H](C)NS(=O)(=O)CCCOCn2ccc(=O)[nH]c2=O)c1` [Example 69, (R)—N-(1-(3-(allyloxy)phenyl)ethyl)-3-((2,4-dioxo-3,4-dihydropyrimidin-1(2H)-yl)methoxy)propane-1-sulfonamide]: inhibition was half-maximal at 740 nM (IC50). As to `CCC[C@H](C)Oc1cccc([C@@H](C)NS(=O)(=O)CCCOCn2ccc(=O)[nH]c2=O)c1` [Example 70, 3-((2,4-dioxo-3,4-dihydropyrimidin-1(2H)-yl)methoxy)-N—((R)-1-(3-((S)-pentan-2-yloxy)phenyl)ethyl)propane-1-sulfonamide], it took 760 nM to reach half-maximal inhibition (IC50). Then `CCC[C@@H](C)Oc1cccc([C@@H](C)NS(=O)(=O)CCCOCn2ccc(=O)[nH]c2=O)c1` [Example 71, 3-((2,4-dioxo-3,4-dihydropyrimidin-1(2H)-yl)methoxy)-N—((R)-1-(3-((R)-pentan-2-yloxy)phenyl)ethyl)propane-1-sulfonamide], with 930 nM. In the case of `C[C@@H](NS(=O)(=O)CCCOCn1ccc(=O)[nH]c1=O)c1cccc(OCC(F)(F)C(F)(F)F)c1` [Example 72, (R)-3-((2,4-dioxo-3,4-dihydropyrimidin-1(2H)-yl)methoxy)-N-(1-(3-(2,2,3,3,3-pentafluoropropoxy)phenyl)ethyl)propane-1-sulfonamide], it took 660 nM to reach half-maximal inhibition (IC50).

For `C[C@@H](NS(=O)(=O)CCCOCn1ccc(=O)[nH]c1=O)c1cccc(OCCC2CC2)c1` [Example 73, (R)—N-(1-(3-(2-cyclopropylethoxy)phenyl)ethyl)-3-((2,4-dioxo-3,4-dihydropyrimidin-1(2H)-yl)methoxy)propane-1-sulfonamide], inhibition was half-maximal at 510 nM (IC50).

As for `O=c1ccn(COCCCS(=O)(=O)NC(c2ccccc2)c2ccccc2)c(=O)[nH]1` [Example 76, N-benzhydryl-3-((2,4-dioxo-3,4-dihydropyrimidin-1(2H)-yl)methoxy)propane-1-sulfonamide], the IC50 turned out to be 2100 nM.

The record behind these values is patent US8530490B2, “Uracil compound or salt thereof having human deoxyuridine triphosphatase inhibitory activity” (Taiho Pharmaceutical Co., Ltd., priority 2008, dated 2013).
